Reference: ChEMBL document CHEMBL5120932, “Discovery and Optimization of Seven-Membered Lactam-Based Compounds to Phenocopy the Inhibition of the Aurora Kinase B” (ACS Med Chem Lett, 2022)
Calls of active or inactive are those of the source. No cut-off for these calls is given here.

Assays:
[1] = Induction of mitotic arrest in human RPE cells over expressing H2B-GFP-fused MYC assessed as minimum effective concentration for polyploidy measured after 24 hrs by fluorescence microscopy; assay type: functional; conditions: read-out: MEC
[2] = Induction of mitotic arrest in human RPE cells over expressing H2B-GFP-fused MYC assessed as polyploidy cells in the interphase cell population at 40 uM measured after 72 hrs by fluorescence microscopy relative to control; assay type: functional
[3] = system: NCI-H23; assay: Cytotoxicity against human NCI-H23 cells assessed as reduction in cell viability measured after 6 days by MTT assay; assay type: functional, cell-based; conditions: time 6.0 day
[4] = system: NCI-N87; assay: Cytotoxicity against human NCI-N87 cells assessed as reduction in cell viability measured after 6 days by MTT assay; assay type: functional, cell-based; conditions: time 6.0 day
[5] = system: A549; assay: Cytotoxicity against human A549 cells assessed as reduction in cell viability measured after 6 days by MTT assay; assay type: functional, cell-based; conditions: time 6.0 day
[6] = system: HCT-116; assay: Cytotoxicity against human HCT-116 cells assessed as reduction in cell viability measured after 6 days by MTT assay; assay type: functional, cell-based; conditions: time 6.0 day
[7] = system: MDA-MB-231; assay: Cytotoxicity against human MDA-MB-231 cells assessed as reduction in cell viability measured after 6 days by MTT assay; assay type: functional, cell-based; conditions: time 6.0 day
[8] = system: DU-145; assay: Cytotoxicity against human DU-145 cells assessed as reduction in cell viability measured after 6 days by MTT assay; assay type: functional, cell-based; conditions: time 6.0 day
[9] = system: NCI-H596; assay: Cytotoxicity against human NCI-H596 cells assessed as reduction in cell viability measured after 6 days by MTT assay; assay type: functional, cell-based; conditions: time 6.0 day
[10] = system: Calu-6; assay: Cytotoxicity against human Calu-6 cells assessed as reduction in cell viability measured after 6 days by MTT assay; assay type: functional, cell-based; conditions: time 6.0 day
[11] = system: NCI-H460; assay: Cytotoxicity against human NCI-H460 cells assessed as reduction in cell viability measured after 6 days by MTT assay; assay type: functional, cell-based; conditions: time 6.0 day
[12] = Induction of mitotic arrest in human RPE cells over expressing H2B-GFP-fused MYC assessed as minimum effective concentration for polyploidy measured after 24 to 72 hrs by fluorescence microscopy; assay type: functional; conditions: time 24-72 hrs, read-out: MEC
[13] = Induction of mitotic arrest in human RPE cells over expressing H2B-GFP-fused MYC assessed as increase in polyploidy at 40 uM measured after 24 to 72 hrs by fluorescence microscopy; assay type: functional; conditions: time 24-72 hrs
[14] = system: DU-145; assay: Cytotoxicity against human DU-145 cells assessed as reduction in cell proliferation at 10 uM measured after 3 days by MTT assay; assay type: functional, cell-based; conditions: time 3.0 day
[15] = system: HCT-116; assay: Cytotoxicity against human HCT-116 cells assessed as reduction in cell proliferation at 10 uM measured after 3 days by MTT assay; assay type: functional, cell-based; conditions: time 3.0 day
[16] = system: MDA-MB-231; assay: Cytotoxicity against human MDA-MB-231 cells assessed as reduction in cell proliferation at 10 uM measured after 3 days by MTT assay; assay type: functional, cell-based; conditions: time 3.0 day
[17] = system: NCI-N87; assay: Cytotoxicity against human NCI-N87 cells assessed as reduction in cell proliferation at 10 uM measured after 3 days by MTT assay; assay type: functional, cell-based; conditions: time 3.0 day
[18] = system: NCI-H23; assay: Cytotoxicity against human NCI-H23 cells assessed as reduction in cell proliferation at 10 uM measured after 3 days by MTT assay; assay type: functional, cell-based; conditions: time 3.0 day
[19] = target: Aurora kinase B (Homo sapiens) (UniProt Q96GD4); assay: Inhibition of AURKB in human RPE cells over expressing H2B-GFP-fused MYC assessed as reduction in phosphorylation at Ser10 residues at 200 nM using histone H3 as substrate measured after 6 hrs by immunofluorescence assay; assay type: cell-based
Aurora kinase B (Homo sapiens), sequence (Q96GD4 whole entry, the tested form may be a part): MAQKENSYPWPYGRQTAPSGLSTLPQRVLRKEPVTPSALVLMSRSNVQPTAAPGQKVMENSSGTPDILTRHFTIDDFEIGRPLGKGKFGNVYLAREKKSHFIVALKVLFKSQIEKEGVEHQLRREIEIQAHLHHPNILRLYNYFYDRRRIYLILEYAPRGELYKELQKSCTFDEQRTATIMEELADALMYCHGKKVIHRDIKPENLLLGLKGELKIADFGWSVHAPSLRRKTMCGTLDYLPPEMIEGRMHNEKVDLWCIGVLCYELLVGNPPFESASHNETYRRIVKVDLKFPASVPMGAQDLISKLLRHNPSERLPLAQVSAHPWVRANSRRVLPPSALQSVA

[20] = target: T1, Aurora kinase A (Homo sapiens) (UniProt O14965); assay: Inhibition of AURKA in human RPE cells over expressing H2B-GFP-fused MYC assessed as reduction in autophosphorylation at Thr288 residues at 0.64 uM measured after 6 hrs by immunofluorescence assay; assay type: cell-based
T1 sequence (whole entry): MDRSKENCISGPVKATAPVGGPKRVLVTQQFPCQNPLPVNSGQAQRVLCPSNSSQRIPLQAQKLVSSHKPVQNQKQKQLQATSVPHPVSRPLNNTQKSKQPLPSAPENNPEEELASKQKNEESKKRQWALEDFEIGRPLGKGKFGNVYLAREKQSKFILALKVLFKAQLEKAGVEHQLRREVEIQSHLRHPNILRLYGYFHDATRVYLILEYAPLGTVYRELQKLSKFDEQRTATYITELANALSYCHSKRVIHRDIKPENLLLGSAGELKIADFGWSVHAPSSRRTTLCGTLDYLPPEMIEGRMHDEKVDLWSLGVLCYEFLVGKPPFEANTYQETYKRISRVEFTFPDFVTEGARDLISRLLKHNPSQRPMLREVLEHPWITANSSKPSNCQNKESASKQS

Row | SMILES | Activity [3] | Activity [4] | Activity [5] | Activity [6] | Activity [7] | Activity [8] | Activity [9] | Activity [10] | Activity [11] | minimal effective concentration [12] [µM] | Activity [13] [%] | other results
1 | COC(=O)C1=C(O)c2ccccc2NC(=O)C1 |  |  |  |  |  |  |  |  |  |  |  | minimal effective concentration [1]: 40 µM; Activity [2]: 50%
2 | Cc1cc(Nc2cc(N3CCN(C)CC3)nc(Sc3ccc(NC(=O)C4CC4)cc3)n2)n[nH]1 | Active | Active | Active | Active | Active | Active | Active | Active | Active |  |  | 
3 | COC(=O)C1=C(O)c2cc(F)ccc2N(Cc2ccc(C)c(F)c2)C(=O)C1 |  |  |  |  |  |  |  |  |  | 0.078 | 40 | 
4 | COC(=O)C1=C(O)c2cc(OC)c(OC)cc2N(Cc2ccc(C)c(F)c2)C(=O)C1 |  |  |  |  |  |  |  |  |  | 0.312 | 90 | 
5 | COC(=O)C1=C(O)c2ccccc2N(Cc2cccc(C)c2)C(=O)C1 |  |  |  |  |  |  |  |  |  | 40 | 10 | 
6 | COC(=O)C1=C(O)c2ccccc2N(Cc2ccc(F)cc2)C(=O)C1 |  |  |  |  |  |  |  |  |  | 40 | 50 | 
7 | COC(=O)C1=C(O)c2ccccc2N(Cc2ccc(C)c(Cl)c2)C(=O)C1 |  |  |  |  |  |  |  |  |  | 5 | 100 | 
8 | COC(=O)C1=C(O)c2ccccc2N(Cc2ccc(C(C)C)cc2)C(=O)C1 |  |  |  |  |  |  |  |  |  | 20 | 70 | 
9 | COC(=O)C1=C(O)c2ccccc2N(Cc2ccc(C)c(F)c2)C(=O)C1 | Active | Active | Active | Active | Active | Active | Active | Active | Active | 0.019 | 30 | Activity [14]: Active; Activity [15]: Active; Activity [16]: Active; Activity [17]: Active; Activity [18]: Active
10 | COC(=O)C1=C(O)c2ccccc2N(Cc2ccc(C)c(C)c2)C(=O)C1 |  |  |  |  |  |  |  |  |  | 20 | 40 | 
11 | COC(=O)C1=C(O)c2scc(C)c2N(Cc2ccc(C)c(F)c2)C(=O)C1 |  |  |  |  |  |  |  |  |  | 0.312 | 100 | Activity [14]: Active; Activity [15]: Active; Activity [16]: Active; Activity [17]: Active; Activity [18]: Active
12 | COc1cc(Nc2ncc3c(n2)-c2ccc(Cl)cc2C(c2c(F)cccc2OC)=NC3)ccc1C(=O)O | Active | Active | Active | Active | Active | Active | Active | Active | Active |  |  | 
13 | CCc1ccc(CN2C(=O)CC(C(=O)OC)=C(O)c3ccccc32)cc1 | Active | Active | Active | Active | Active | Active | Active | Active | Active | 0.078 | 10 | Activity [14]: Active; Activity [16]: Active; Activity [17]: Active; Activity [18]: Active
14 | CC[C@@H]1C(=O)N(C)c2cnc(Nc3ccc(C(=O)NC4CCN(C)CC4)cc3OC)nc2N1C1CCCC1 | Active | Active | Active | Active | Active | Active | Active | Active | Active |  |  | 
15 | COC(=O)C1=C(O)c2ccccc2N(Cc2ccc(C#N)cc2)C(=O)C1 |  |  |  |  |  |  |  |  |  | 40 | 10 | 
16 | COC(=O)C1=C(O)c2ccccc2N(Cc2ccc(OC)cc2)C(=O)C1 | Active | Active | Active | Active | Active | Active | Active | Active | Active | 0.156 | 80 | Activity [14]: Active; Activity [15]: Active; Activity [16]: Active; Activity [17]: Active; Activity [18]: Active
17 | CCN(CCO)CCCOc1ccc2c(Nc3cc(CC(=O)Nc4cccc(F)c4)[nH]n3)ncnc2c1 |  |  |  |  |  |  |  |  |  |  |  | inhibition [19]: Active
18 | COC(=O)C1=C(O)c2ccccc2N(Cc2ccc(C(C)(C)C)cc2)C(=O)C1 |  |  |  |  |  |  |  |  |  | 40 | 5 | 
19 | COC(=O)C1=C(O)c2ccccc2N(Cc2ccccc2)C(=O)C1 |  |  |  |  |  |  |  |  |  | 40 | 50 | 
20 | COc1ccc2c(c1)[C@]1(C[C@H]1c1ccc3c(/C=C/c4ccc(CN5C[C@@H](C)O[C@@H](C)C5)cc4)n[nH]c3c1)C(=O)N2 | Active | Active | Active | Active | Active | Active | Active | Active | Active |  |  | 
21 | COC(=O)C1=C(O)c2ccccc2N(Cc2cccc(OC)c2)C(=O)C1 |  |  |  |  |  |  |  |  |  | 20 | 20 | 
22 | COC(=O)C1=C(O)c2ccccc2N(Cc2ccc(C)cc2)C(=O)C1 |  |  |  |  |  |  |  |  |  | 0.625 | 10 | Activity [14]: Active; Activity [15]: Active; Activity [16]: Active; Activity [17]: Active; Activity [18]: Active
23 | COC(=O)C1=C(O)c2ccccc2N(Cc2ccc(OC)c(F)c2)C(=O)C1 | Active | Active | Active | Active | Active | Active | Active | Active | Active | 0.039 | 70 | Activity [14]: Active; Activity [15]: Active; Activity [16]: Active; inhibition [20]: Active; Activity [17]: Active; Activity [18]: Active
24 | COC(=O)C1=C(O)c2ccccc2N(Cc2ccc(C)cc2C)C(=O)C1 |  |  |  |  |  |  |  |  |  | 1.25 | 100 | 
25 | Cc1csc(-c2nnc(Nc3ccc(Oc4ncccc4-c4ccnc(N)n4)cc3)c3ccccc23)c1 | Active | Active | Active | Active | Active | Active | Active | Active | Active |  |  | 
26 | COC(=O)C1=C(O)c2ccccc2N(Cc2ccc(C(F)(F)F)cc2)C(=O)C1 |  |  |  |  |  |  |  |  |  | 10 | 30 | 
27 | COC(=O)C1=C(O)c2ccccc2N(Cc2cccc(F)c2)C(=O)C1 |  |  |  |  |  |  |  |  |  | 40 | 40 | 
